Measured values reported in US20120115724A1, “METHOD OF CONTROLLING UNDESIRED VEGETATION” (SYNGENTA CROP PROTECTION LLC, priority 2009, published 2012).

Columns and labels:
Assay type in all cases: in vivo
[1] = tested on: Echinochloa crus-galli (ECHCG); assay: Post-emergence biological efficacy (Example 14); details: Echinochloa crus-galli, 312 h; post-emergence, 1,000 g/ha, after 13 days; read-out: Percentage damage ECHCG
In short: (§1)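 Post-emerg. spray, 250 or 1000 g/ha; vehicle acetone/H2O 50:50 + 0.5% Tween 20. Plants 8 d old at treatment; glasshouse 24/16 °C, 14 h photoperiod, 65% humidity. Scored d13, 0–100 damage.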

[2] = tested on: Amaranthus retroflexus (AMARE); assay: Post-emergence biological efficacy (Example 14); details: Amaranthus retroflexus, 312 h; post-emergence, 1,000 g/ha, after 13 days; read-out: Percentage damage AMARE
In short: as §1

Setaria faberi (SETFA) [3] = assay: Post-emergence biological efficacy (Example 14); details: Setaria faberi, 312 h; post-emergence, 1,000 g/ha, after 13 days; read-out: Percentage damage SETFA
In short: as §1

Solanum nigrum (SOLNI) [4] = assay: Post-emergence biological efficacy (Example 14); details: Solanum nigrum, 312 h; post-emergence, 1,000 g/ha, after 13 days; read-out: Percentage damage SOLNI
In short: as §1

[5] = tested on: Alopecurus myosuroides (ALOMY); assay: Post-emergence biological efficacy (Example 14); details: Alopecurus myosuroides, 312 h; post-emergence, 1,000 g/ha, after 13 days; read-out: Percentage damage ALOMY
In short: as §1

[6] = tested on: Echinochloa crus-galli (ECHCG); assay: Pre-emergence biological efficacy (Example 13); details: Echinochloa crus-galli, 312 h; pre-emergence, 1,000 g/ha, after 13 days; read-out: Percentage damage ECHCG
In short: (§2)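 Phytotoxicity was rated on a 0 (no damage) to 100 (total damage) scale 13 days after treatment. Test compound was sprayed at 250 or 1000 g/ha onto soil-sown pots one day after sowing, using acetone/water (50:50) with 0.5% Tween 20 diluted in water.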

[7] = tested on: Amaranthus retroflexus (AMARE); assay: Pre-emergence biological efficacy (Example 13); details: Amaranthus retroflexus, 312 h; pre-emergence, 1,000 g/ha, after 13 days; read-out: Percentage damage AMARE
In short: as §2

Setaria faberi (SETFA) [8] = assay: Pre-emergence biological efficacy (Example 13); details: Setaria faberi, 312 h; pre-emergence, 1,000 g/ha, after 13 days; read-out: Percentage damage SETFA
In short: as §2

[9] = tested on: Ipomea hederaceae (IPOHE); assay: Pre-emergence biological efficacy (Example 13); details: Ipomoea hederacea, 312 h; pre-emergence, 1,000 g/ha, after 13 days; read-out: Percentage damage IPOHE
In short: as §2

Solanum nigrum (SOLNI) [10] = assay: Pre-emergence biological efficacy (Example 13); details: Solanum nigrum, 312 h; pre-emergence, 1,000 g/ha, after 13 days; read-out: Percentage damage SOLNI
In short: as §2

[11] = tested on: Alopecurus myosuroides (ALOMY); assay: Pre-emergence biological efficacy (Example 13); details: Alopecurus myosuroides, 312 h; pre-emergence, 1,000 g/ha, after 13 days; read-out: Percentage damage ALOMY
In short: as §2

[12] = tested on: POLCO Polygonum convolvulus; assay: Pre-emergence crop and weed test (Example 16); details: after 20 days
Method: (§3) Seeds of crop and representative weed species were sown in standard soil in pots. After cultivation for 1 day under controlled conditions in a glasshouse (at 22/16° C., day/night; 16 hours light; 65% humidity), the plants were sprayed. The spray solution was prepared by dissolving the technical active ingredient in acetone containing 10.56 wt % Emulsogen EL, 42.22 wt % N-methylpyrrolidone and 2.22 wt % DPG-monoethyl ether to give a 5% stock solution. This was then diluted with water containing 0.2% (v/v) of the adjuvant X-77 to give the desired treatment concentration.
(§4) The test plants were then grown on under controlled conditions in a glasshouse (at 22/16° C., day/night; 16 hours light; 65% humidity) and watered twice daily. After 20 days the test was evaluated (100=total damage to plant; 0=no damage to plant).
(§5) Species as for Post-Emergence Test.

[13] = tested on: EPHHL Euphorbia heterophylla; assay: Pre-emergence crop and weed test (Example 16); details: after 20 days
Method: as §3, §4, §5

GLXMA Soybean = assay: Pre-emergence crop and weed test (Example 16); details: after 20 days
Method: as §3, §4, §5

[14] = tested on: AMARE Amaranthus retroflexus; assay: Pre-emergence crop and weed test (Example 16); details: after 20 days
Method: as §3, §4, §5

CHEAL Chenopodium album = assay: Pre-emergence crop and weed test (Example 16); details: after 20 days
Method: as §3, §4, §5

IPOHE Ipomoea hederacea = assay: Pre-emergence crop and weed test (Example 16); details: after 20 days
Method: as §3, §4, §5

SINAR Sinapis arvensis = assay: Pre-emergence crop and weed test (Example 16); details: after 20 days
Method: as §3, §4, §5

GALAP Galium aparine = assay: Pre-emergence crop and weed test (Example 16); details: after 20 days
Method: as §3, §4, §5

[15] = tested on: XANST Xanthium strumarium; assay: Pre-emergence crop and weed test (Example 16); details: after 20 days
Method: as §3, §4, §5

SIDSP Sida spinosa = assay: Pre-emergence crop and weed test (Example 16); details: after 20 days
Method: as §3, §4, §5

[16] = tested on: ABUTH Abutilon theophrasti; assay: Pre-emergence crop and weed test (Example 16); details: after 20 days
Method: as §3, §4, §5

SMILES | pest or weed control at 1000 g/ha [1] [%] | pest or weed control at 1000 g/ha [2] [%] | pest or weed control at 1000 g/ha (Setaria faberi (SETFA) [3]) [%] | pest or weed control at 1000 g/ha (Solanum nigrum (SOLNI) [4]) [%] | pest or weed control at 1000 g/ha [5] [%] | pest or weed control at 1000 g/ha [6] [%] | pest or weed control at 1000 g/ha [7] [%] | pest or weed control at 1000 g/ha (Setaria faberi (SETFA) [8]) [%] | pest or weed control at 1000 g/ha [9] [%] | pest or weed control at 1000 g/ha (Solanum nigrum (SOLNI) [10]) [%] | pest or weed control at 1000 g/ha [11] [%] | Percentage damage POLCO ([12]; 125 g/ha) [%] | Percentage damage EPHHL ([13]; 125 g/ha) [%] | Percentage damage GLXMA (GLXMA Soybean; 125 g/ha) [%] | Percentage damage AMARE ([14]; 125 g/ha) [%] | Percentage damage CHEAL (CHEAL Chenopodium album; 125 g/ha) [%] | Percentage damage IPOHE (IPOHE Ipomoea hederacea; 125 g/ha) [%] | Percentage damage SINAR (SINAR Sinapis arvensis; 125 g/ha) [%] | Percentage damage GALAP (GALAP Galium aparine; 125 g/ha) [%] | Percentage damage XANST ([15]; 125 g/ha) [%] | also measured
C/C=C/c1c(N)nc(-c2ccc(Cl)c(OC)c2F)nc1C(=O)OC [Compound 3, (E)-4-Amino-2-(4-chloro-2-fluoro-3-methoxy-phenyl)-6-methoxy-carbonyl-5-(prop-1-enyl)-pyrimidine] | 100 | 100 | 100 | 100 | 90 | 90 | 50 | 80 | 90 | 80 | 90 | – | – | – | – | – | – | – | – | – | Percentage damage POLCO ([12]; 30 g/ha): 50%; Percentage damage EPHHL ([13]; 30 g/ha): 100%; Percentage damage GLXMA (GLXMA Soybean; 30 g/ha): 0%; Percentage damage AMARE ([14]; 30 g/ha): 80%; Percentage damage CHEAL (CHEAL Chenopodium album; 30 g/ha): 100%; Percentage damage IPOHE (IPOHE Ipomoea hederacea; 30 g/ha): 0%; Percentage damage SINAR (SINAR Sinapis arvensis; 30 g/ha): 40%; Percentage damage GALAP (GALAP Galium aparine; 30 g/ha): 100%; Percentage damage XANST ([15]; 30 g/ha): 10%; Percentage damage SIDSP (SIDSP Sida spinosa; 30 g/ha): 90%; Percentage damage ABUTH ([16]; 30 g/ha): 30%
C/C=C\c1c(N)nc(-c2ccc(Cl)c(N(C)C)c2F)nc1C(=O)OC [Compound 5, (Z)-4-Amino-2-(4-chloro-3-dimethylamino-2-fluorophenyl)-6-methoxy-carbonyl-5-(prop-1-enyl)-pyrimidine] | 70 | 100 | 70 | 80 | 60 | 30 | 70 | 30 | 20 | 60 | 30 | 0 | 100 | 0 | 90 | 100 | 50 | 40 | 100 | 40 | Percentage damage SIDSP (SIDSP Sida spinosa; 125 g/ha): 90%; Percentage damage ABUTH ([16]; 125 g/ha): 70%
C/C=C\c1c(N)nc(-c2ccc(Cl)c(OC)c2F)nc1C(=O)OC [Compound 4, (Z)-4-Amino-2-(4-chloro-2-fluoro-3-methoxy-phenyl)-6-methoxy-carbonyl-5-(prop-1-enyl)-pyrimidine] | 80 | 100 | 90 | 80 | 70 | 90 | 100 | 80 | 100 | 100 | 80 | 20 | 100 | 10 | 100 | 40 | 50 | 50 | 80 | 30 | Percentage damage SIDSP (SIDSP Sida spinosa; 125 g/ha): 100%; Percentage damage ABUTH ([16]; 125 g/ha): 100%
